These results are taken from ChEMBL document CHEMBL1127071, “Structure-activity relationships of C-terminal endothelin hexapeptide antagonists” (J Med Chem, 1993).

Test [1] deals with T1, Endothelin receptor type B (Rattus norvegicus, UniProt P21451).
T1 sequence (P21451 whole entry): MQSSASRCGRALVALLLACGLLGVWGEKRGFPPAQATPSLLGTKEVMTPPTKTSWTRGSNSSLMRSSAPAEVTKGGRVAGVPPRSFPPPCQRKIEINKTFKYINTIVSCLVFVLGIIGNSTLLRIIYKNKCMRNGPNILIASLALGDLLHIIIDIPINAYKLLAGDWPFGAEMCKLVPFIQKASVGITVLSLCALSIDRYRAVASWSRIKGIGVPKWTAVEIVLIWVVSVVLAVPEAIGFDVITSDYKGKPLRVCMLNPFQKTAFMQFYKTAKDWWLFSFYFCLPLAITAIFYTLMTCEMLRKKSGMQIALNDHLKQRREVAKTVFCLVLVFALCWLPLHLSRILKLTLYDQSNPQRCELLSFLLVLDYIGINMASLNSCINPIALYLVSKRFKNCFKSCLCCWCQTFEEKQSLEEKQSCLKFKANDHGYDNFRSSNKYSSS
As to the kind of experiment: Effective concentration against Endothelin B receptor from rat cerebellum. The test is classed as tissue-based.

The target of test [2] is T2, Endothelin receptor (Rattus norvegicus, UniProt P26684+P21451).
T2 sequence (P26684 whole entry): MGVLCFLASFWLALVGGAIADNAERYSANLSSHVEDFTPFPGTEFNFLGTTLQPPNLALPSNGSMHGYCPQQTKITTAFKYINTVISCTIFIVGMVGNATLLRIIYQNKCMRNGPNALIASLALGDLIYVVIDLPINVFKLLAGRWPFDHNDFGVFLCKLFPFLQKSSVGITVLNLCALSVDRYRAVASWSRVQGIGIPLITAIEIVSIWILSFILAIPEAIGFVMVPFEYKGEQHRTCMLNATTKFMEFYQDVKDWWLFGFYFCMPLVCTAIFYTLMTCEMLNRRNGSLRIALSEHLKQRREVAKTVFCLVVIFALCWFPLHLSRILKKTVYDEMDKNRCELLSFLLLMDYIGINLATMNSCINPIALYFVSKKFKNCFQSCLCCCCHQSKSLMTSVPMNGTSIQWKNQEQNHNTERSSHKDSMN
T2 sequence (P21451 whole entry): T1 sequence (P21451 whole entry)
As to the kind of experiment: Binding affinity against Endothelin receptor from rat heart ventricle. The test is classed as protein assay.

For test [3], the species on record is Oryctolagus cuniculus. As to the kind of experiment: Inhibition of ET-1 stimulated arachidonic acid release in rabbit renal artery vascular smooth muscle cells. The test is classed as functional.

“And” between values parts separate entries of the source, which are not always exact repeats. Equal values may be shown once. Where a SMILES comes first, the peptide text is derived from it. [ ]: non-standard residue; d: D form. d2Nal = N[C@H](Cc1ccc2ccccc2c1)C(=O)O; Orn = NCCC[C@H](N)C(=O)O

As usually defined, the IC50 is the point on the concentration scale where inhibition reaches its midpoint. Lower therefore signals greater potency in that assay. Regarding `CC[C@H](C)[C@H](NC(=O)[C@H](CC(=O)O)NC(=O)[C@H](CC(C)C)NC(=O)[C@@H](Cc1ccccc1)NC(C)=O)C(=O)N[C@@H](Cc1c[nH]c2ccccc12)C(=O)O` (Ac-[dF]LDIW-OH), the figures for the IC50 in test [1] and in test [2] were greater than 10 µM and 24.5 µM, respectively.

On to `CC[C@H](C)[C@H](NC(=O)[C@H](CC(=O)O)NC(=O)[C@H](CC(C)C)NC(=O)[C@@H](Cc1ccccc1)NC(C)=O)C(=O)N[C@H](C(=O)N[C@@H](Cc1ccc(O)cc1)C(=O)O)[C@@H](C)CC` (Ac-[dF]LDIIY-OH), for which the IC50 in test [1] was found to be 0.15 µM.

Take `CC[C@H](C)[C@H](NC(=O)[C@H](CC(=O)O)NC(=O)[C@H](CC(C)C)NC(=O)[C@@H](Cc1ccc(O)cc1)NC(C)=O)C(=O)N[C@H](C(=O)N[C@@H](Cc1c[nH]c2ccccc12)C(=O)O)[C@@H](C)CC` (Ac-[dY]LDIIW-OH): the results for the IC50 in test [1] and in test [3] were 7 µM and 0.25 µM, respectively.

For the compound `CC[C@H](C)[C@H](NC(=O)[C@H](CC(=O)O)NC(=O)[C@H](CC(C)C)NC(=O)[C@@H](Cc1ccc2ccccc2c1)NC(C)=O)C(=O)N[C@H](C(=O)N[C@@H](Cc1c[nH]c2ccccc12)C(=O)O)[C@@H](C)CC` (Ac-[d2Nal]LDIIW-OH), the IC50 in test [3] was 1.9 µM.

Compound `CC[C@H](C)[C@H](NC(=O)[C@@H](Cc1ccccc1)NC(C)=O)C(=O)N[C@@H](Cc1c[nH]c2ccccc12)C(=O)O` (Ac-[dF]-Ile-Trp-OH) displayed an IC50 in test [1] greater than 10 µM.

`CC[C@H](C)[C@H](NC(=O)[C@H](Cc1ccccc1)NC(=O)[C@H](CC(=O)O)NC(=O)[C@@H](Cc1ccccc1)NC(C)=O)C(=O)N[C@@H](Cc1c[nH]c2ccccc12)C(=O)O` (Ac-[dF]DFIW-OH) gave an IC50 in test [1] of 4.6 µM.

Regarding `CC[C@H](C)[C@H](NC(=O)[C@H](CC(=O)O)NC(=O)[C@H](CC(C)C)NC(=O)[C@H](Cc1c[nH]cn1)NC(C)=O)C(=O)N[C@H](C(=O)N[C@H](Cc1c[nH]c2ccccc12)C(=O)O)[C@@H](C)CC`, in test [2], the IC50 is greater than 50 µM.

Turning to `CC[C@H](C)[C@H](NC(=O)[C@H](CC(=O)O)NC(=O)[C@H](CC(C)C)NC(=O)[C@@H](Cc1ccccc1)NC(C)=O)C(=O)N[C@H](C(=O)N[C@@H](Cc1csc2ccccc12)C(=O)O)[C@@H](C)CC`, the IC50 in test [1] was 9.8 µM; in test [2], 3.8 µM; in test [3], greater than 10 µM.

Regarding `CC[C@H](C)[C@H](NC(=O)[C@H](CC(=O)O)NC(=O)[C@H](C)NC(=O)[C@@H](Cc1ccccc1)NC(C)=O)C(=O)N[C@H](C(=O)N[C@@H](Cc1c[nH]c2ccccc12)C(=O)O)[C@@H](C)CC` (Ac-[dF]ADIIW-OH), the values for the IC50 in test [1], in test [2] and in test [3] were 0.29 µM, 0.42 µM and 0.33 µM, respectively.

Take `CC[C@H](C)[C@H](NC(=O)[C@H](CC(=O)O)NC(=O)[C@H](CCCN)NC(=O)[C@@H](Cc1ccccc1)NC(C)=O)C(=O)N[C@H](C(=O)N[C@@H](Cc1c[nH]c2ccccc12)C(=O)O)[C@@H](C)CC` (Ac-[dF][Orn]DIIW-OH): the results for the IC50 in test [1] and in test [2] were 2.45 µM and 0.68 µM, respectively.

Consider `CC[C@H](C)[C@H](NC(=O)[C@H](CC(=O)O)NC(=O)[C@@H](CC(C)C)NC(=O)[C@H](Cc1c[nH]cn1)NC(C)=O)C(=O)N[C@H](C(=O)N[C@@H](Cc1c[nH]c2ccccc12)C(=O)O)[C@@H](C)CC`, for which, in test [2], the IC50 amounted to 39 µM.

With Ac-FLDIIW-OH, the IC50 in test [1] was 18.5 µM.

For the compound `CC[C@H](C)[C@H](NC(=O)[C@H](Cc1ccccc1)NC(=O)[C@H](CC(C)C)NC(=O)[C@@H](Cc1ccccc1)NC(C)=O)C(=O)N[C@H](C(=O)N[C@@H](Cc1c[nH]c2ccccc12)C(=O)O)[C@@H](C)CC` (Ac-[dF]LFIIW-OH), the IC50 was 0.036 µM in test [1] and 0.38 µM in test [2].

In turn, `CC[C@H](C)[C@H](NC(=O)[C@H](CC(=O)O)NC(=O)[C@H](CC(C)C)NC(=O)[C@@H](Cc1ccccc1)NC(C)=O)C(=O)N[C@@H](CCC(=O)O)C(=O)N[C@@H](Cc1c[nH]c2ccccc12)C(=O)O` gave an IC50 in test [2] of 5.2 µM.

As for `CC[C@H](C)[C@H](NC(=O)[C@H](CC(=O)O)NC(=O)[C@H](CC(C)C)NC(=O)[C@@H](Cc1ccccc1)NC(C)=O)C(=O)N[C@@H](C)C(=O)N[C@@H](Cc1c[nH]c2ccccc12)C(=O)O` (Ac-[dF]LDIAW-OH), the IC50 was greater than 10 µM in test [1], 6.83 µM in test [2] and greater than 10 µM in test [3].

`CC[C@H](C)[C@H](NC(=O)[C@H](CCCCN)NC(=O)[C@H](CC(=O)O)NC(=O)[C@H](CC(C)C)NC(=O)[C@@H](Cc1ccccc1)NC(C)=O)C(=O)N[C@@H](Cc1c[nH]c2ccccc12)C(=O)O`: the IC50 was greater than 10 µM in test [1] and greater than 50 µM in test [2].

Turning to `CC[C@H](C)[C@H](NC(=O)[C@H](CC(=O)O)NC(=O)[C@H](CC(C)C)NC(=O)[C@@H](Cc1c[nH]cn1)NC(C)=O)C(=O)N[C@H](C(=O)N[C@@H](Cc1c[nH]c2ccccc12)C(=O)O)[C@@H](C)CC`, the IC50 is 9.1 µM in test [1]; 4.1 µM and 4.5 µM in test [2].

As for `CC[C@H](C)[C@H](NC(=O)[C@H](CCCCN)NC(=O)[C@H](CC(C)C)NC(=O)[C@@H](Cc1ccccc1)NC(C)=O)C(=O)N[C@H](C(=O)N[C@@H](Cc1c[nH]c2ccccc12)C(=O)O)[C@@H](C)CC`, the IC50 in test [1] was greater than 10 µM; in test [2] it was 12 µM.

As to `CC[C@H](C)[C@H](NC(=O)[C@H](CC(=O)O)NC(=O)[C@H](Cc1ccccc1)NC(=O)[C@@H](Cc1ccccc1)NC(C)=O)C(=O)N[C@H](C(=O)N[C@@H](Cc1c[nH]c2ccccc12)C(=O)O)[C@@H](C)CC` (stereo in doubt; 21), the values for the IC50 in test [1] and in test [3] were 0.02 µM and 2.2 µM, respectively.

In test [1], `CC[C@H](C)[C@H](NC(=O)[C@H](CC(=O)O)NC(=O)[C@H](CC(C)C)NC(=O)[C@@H](N)Cc1ccccc1)C(=O)N[C@H](C(=O)N[C@@H](Cc1c[nH]c2ccccc12)C(=O)O)[C@@H](C)CC` showed an IC50 of 2.6 µM.

With `CC[C@H](C)[C@H](NC(=O)[C@@H](NC(=O)[C@@H](Cc1ccccc1)NC(C)=O)[C@@H](C)CC)C(=O)N[C@@H](Cc1c[nH]c2ccccc12)C(=O)O` (Ac-[dF]IIW-OH), the IC50 in test [1] was greater than 10 µM.

In test [2], `CC[C@H](C)[C@H](NC(=O)[C@H](CC(=O)O)NC(=O)[C@H](CC(C)C)NC(=O)[C@@H](Cc1ccccc1)NC(C)=O)C(=O)N[C@@H](CCCCN)C(=O)N[C@@H](Cc1c[nH]c2ccccc12)C(=O)O` had an IC50 greater than 50 µM.

In the case of `CC[C@H](C)[C@H](NC(=O)[C@H](C)NC(=O)[C@H](CC(=O)O)NC(=O)[C@H](CC(C)C)NC(=O)[C@@H](Cc1ccccc1)NC(C)=O)C(=O)N[C@@H](Cc1c[nH]c2ccccc12)C(=O)O` (Ac-[dF]LDAIW-OH), the IC50 in test [1] came to 0.45 µM; in test [2], 1.61 µM; in test [3] it was 1.5 µM.

`CC[C@H](C)[C@H](NC(=O)[C@H](CC(=O)O)NC(=O)[C@@H](Cc1ccccc1)NC(C)=O)C(=O)N[C@H](C(=O)N[C@@H](Cc1c[nH]c2ccccc12)C(=O)O)[C@@H](C)CC` (Ac-[dF]DIIW-OH) showed an IC50 in test [2] of 2.15 µM.

In test [1], `CC[C@H](C)[C@H](NC(=O)[C@H](CC(=O)O)NC(=O)[C@H](CC(C)C)NC(=O)[C@@H](Cc1ccccc1)NC(C)=O)C(=O)N[C@H](C(=O)NC(Cc1cnc[nH]1)C(=O)O)[C@@H](C)CC` (mixture of isomers) came in with an IC50 greater than 10 µM.

Consider `CC[C@H](C)[C@H](NC(=O)[C@H](CCC(=O)O)NC(=O)[C@H](CC(=O)O)NC(=O)[C@H](CC(C)C)NC(=O)[C@@H](Cc1ccccc1)NC(C)=O)C(=O)N[C@@H](Cc1c[nH]c2ccccc12)C(=O)O`, for which the IC50 in test [1] is greater than 10 µM; in test [2] it was 9 µM; in test [3], greater than 10 µM.

Turning to `CC[C@H](C)[C@H](NC(=O)[C@H](CC(=O)O)NC(=O)[C@H](CC(C)C)NC(=O)[C@@H](Cc1ccccc1)NC(C)=O)C(=O)N[C@H](C(=O)N[C@@H](Cc1c[nH]c2ccccc12)C(=O)O)[C@@H](C)CC` (Ac-[dF]LDIIW-OH), the IC50 amounted to 2 µM in test [1] and 0.74 µM in test [2].

In test [2], `CC[C@@H](C)[C@@H](NC(=O)[C@H](CC(=O)O)NC(=O)[C@H](CC(C)C)NC(=O)[C@H](Cc1c[nH]cn1)NC(C)=O)C(=O)N[C@H](C(=O)N[C@@H](Cc1c[nH]c2ccccc12)C(=O)O)[C@@H](C)CC` yielded an IC50 of 169 µM.

`CC[C@H](C)[C@H](NC(=O)[C@H](Cc1ccc(O)cc1)NC(=O)[C@@H](Cc1ccccc1)NC(C)=O)C(=O)N[C@H](C(=O)N[C@@H](Cc1c[nH]c2ccccc12)C(=O)O)[C@@H](C)CC` gave an IC50 in test [1] greater than 10 µM.

`CC[C@H](C)[C@H](NC(=O)[C@H](CC(=O)O)NC(=O)[C@H](CC(C)C)NC(=O)[C@H](N)Cc1ccccc1)C(=O)N[C@H](C(=O)N[C@@H](Cc1c[nH]c2ccccc12)C(=O)O)[C@@H](C)CC`: the IC50 came to 2.6 µM in test [1] and 12.4 µM in test [2].

Consider `CC[C@H](C)[C@H](NC(=O)[C@H](CC(=O)O)NC(=O)[C@H](Cc1ccccc1)NC(=O)[C@@H](Cc1ccccc1)NC(C)=O)C(=O)N[C@H](C(=O)N[C@@H](Cc1c[nH]c2ccccc12)C(=O)O)[C@@H](C)CC` (stereo in doubt; 20), for which the IC50 was determined as 0.06 µM in test [1] and 0.33 µM in test [2].
